Data from patent US20140154717A1, “METHOD FOR DETECTING CANCER CELL USING FLUORESCENTLY LABELED L-GLUCOSE DERIVATIVE, AND CANCER CELL-IMAGING AGENT COMPRISING FLUORESCENTLY LABELED L-GLUCOSE DERIVATIVE” (priority 2011, published 2014).

Test system: mouse insulinoma cells (MIN6)
Experiment: Uptake into MIN6 cells with or without inhibitors, fluorescence microplate reader (Flex Station)
Type: cell-based
Settings: 200 μM, 5 minutes
Protocol: A difference in the uptake of 2-NBDLG (200 μM) and 2-NBDG (200 μM) into mouse insulinoma cells (MIN6) each applied for 5 minutes was analyzed quantitatively by a fluorescence microplate reader Flex Station (manufactured by Molecular Devices Corporation) in the condition whether or not various inhibitors are present. The well used for measurement was a 96-well clear bottomed well plate μ CLEAR-PLATE (Greiner bio-one, BLACK, 96 well, #655090) having longitudinally […] to 12 twelve columns, and MIN6 cell suspension prepared at a proportion of 6×10^5 cells/mL was seeded uniformly into wells from line B to line G at the third column and the fifth column each in an amount of 15 μL. For medium exchange, the half quantity was exchanged every two days in 0 to 4 DIV (days in vitro), and from 5 DIV or later, exchanged every day, and on days 10 to 13 (10 to 13 DIV), the cells were subjected to an experiment. Line A and line H were used as a control for checking correct washout, without seeding cells. In the fourth column, cells were not present, and wells in this column were used as a blank containing only Krebs Ringer buffer solution (KRB, containing 0.1 mM gap junction inhibitor carbenoxolone and 5.6 mM glucose). Evaluation was done in a way that 2-NBDLG or 2-NBDG was charged in each tube of a 8-strip PCR tube, and sucked using a 8-channel pipette and dropped simultaneously into wells. In this way, administration to wells for 2-NBDLG and to wells for 2-NBDG can be done simultaneously, making reliable evaluation possible. As described above, cells are present in 12 wells in the third and the fifth two columns, and these were divide into 4 groups each having 3 wells according to a difference either 2-NBDLG or 2-NBDG and whether an inhibitor is present or absent. Specifically, when checking the effect by the presence or absence of a GLUT inhibitor Cytochalasin B (10 μM) on the uptake of 2-NBDLG (200 μM) and 2-NBDG (200 μM), first, in wells, which are planned to be measured in the presence of Cytochalasin B, Cytochalasin B was added 5 minutes prior to the administration of the fluorescently labeled glucose derivative. Before administration of a fluorescently labeled glucose derivative, the autofluorescence was measured in each well. The measurement was done with Flex Station in Well Scan Mode and in the Bottom Read position at Ex 470 nm, Em 540 nm, Cut off 495 nm, Averaging 3, and Photomultiplier sensitivity: high. In Well Scan Mode of the fluorescence microplate reader Flex Station, one well was divided into nine observation areas and these are measured independently. The presence of approximately 5000 cells in each of 9-divided areas was separately confirmed by Z section measurement of a realtime deconvolution microscope. 2-NBDG and 2-NBDLG were administered with or without Cytochalasin B (37° C., 5 minutes), and after cessation of administration, an operation of adding 250 μL of a KRB solution containing no fluorescently labeled glucose into 50 μL of a solution in a well was repeated 7 times while measuring with a stopwatch, thereby performing washout until the fluorescence intensities of wells in line A and line H set as a control group became equal to the fluorescence intensity of the blank well containing no cell. This process required 7 minutes, and even if cells having broken plasma membrane condition are brought into contact with 2-NBDG and 2-NBDLG, and even if these compounds are once taken up into the cell, these compounds are already eliminated out of the cell and are washed away in measurement, therefore, contribution to an increase in the fluorescence intensity in the whole observation area was judged to be in an ignorable level. This was supported by a separate pharmacological inhibition experiment in which the increase in the fluorescence intensity nearly disappears in the presence of an inhibitor. The above-described method was carried out similarly in the case of other inhibitors. […]

Q: For O=[N+]([O-])c1ccc(NC2C(O)OC(CO)[C@H](O)C2O)c2nonc12 (stereo partly drawn) [2-NBDLG, 2-[N-(7-Nitrobenz-2-oxa-1,3-diazol-4-yl)amino]-2-deoxy-L-glucose], which “effect of GLUT inhibitor Cytochalasin B on uptake into MIN6 cells” value (37° C., Cytochalasin B (10 µM, CB)) is on record?
A: did not show a significant decrease (N.S.)

Q: And the “uptake into MIN6 cells in buffer containing Na+ versus no Na+ ion (SGLT)” value (37° C., Na(−) buffer, choline substituted)?
A: no significant difference

Q: What about the “effect of Phloretin on uptake into MIN6 cells” value (Phloretin (150 μM, PHT)) of the same compound?
A: underwent inhibition of the uptake
